US20070082903A1, “Remedy for rheumatoid arthritis” (priority 2003, published 2007)
Like-named read-outs stand apart in the source and are kept apart here.

Experiments:
[1] = test system: mice with collagen arthritis; test: antiarthritic effect in mice with collagen arthritis; assay type: in vivo; conditions: considered on the basis of the rat adjuvant arthritis and mouse collagen arthritis results
Experimental: On the other hand, it is known that 3-[(1S)-1-(2-fluorobiphenyl-4-yl)ethyl]-5-{[amino(morpholin-4-yl)methylene]amino}isoxazole (hereinafter referred to also as “compound (I)” or “SMP-114”) is useful as, for example, an excellent medicament for treating autoimmune diseases, inflammatory diseases and the like.
It was 5 mg/kg (once-a-day oral administration) in the case of mice with collagen arthritis (F. Nishikaku, “Annals of the Rheumatic Diseases”, vol. 61 supplement 1, p. 194 (2002)).

[2] = repeated administration test on healthy male Caucasians (7 days), serum concentration by LC-MS/MS; assay type: in vivo, human; conditions: for AUC(0-t): serum, oral, read-out: AUC0-24 at the steady state
Experimental: A repeated administration test on healthy male Caucasians of 18 to 50 years old was carried out. Using the SMP-114 tablets and placebo tablets, 80 mg or 120 mg of each of the placebo and SMP-114 was orally administered once a day for 7 days by a placebo controlled double-blind method (at each dose, 8 cases of SMP-114 administration and 2 cases of placebo administration: 20 subjects in total).
The SMP-114 concentration in serum was measured by a LC-MS/MS method by employing the following pretreatment and measuring conditions.
1) To each of the standard sample solutions for calibration curve, the QC sample and the samples to be analyzed was added 10 mL of an internal standard solution (d5-SMP-114 5 ng/mL), and stirred.
2) To the resulting mixture were added 1 mL of 100 mmol/L ammonium acetate buffer (pH 4.0) and then 6 mL of diethyl ether, and stirred for 10 minutes, followed by centrifugation at 4° C. and 3000 rpm for 10 minutes.
3) The supernatant was transferred to a glass tube and concentrated to dryness in a nitrogen stream (40° C.) in an aluminum-blocked thermostatic chamber.
4) To the residue was added 120 μL of 50 vol % acetonitrile and the residue was redissolved with an ultrasonic bath and a Vortex mixer.
5) The solution obtained by the redissolution was transferred to a filter and centrifuged at 5000 rpm for 3 minutes.
6) The filtrate was transferred to an auto-sampler vial to obtain a sample solution for measurement.
LC-MS/MS measurement was carried out under the following conditions. However, parameters (e.g. gas volume and collision voltage) whose optimum values were variable depending on the condition of a mass spectrometer were properly changed.
Mobile phase: eluent A; 0.3 vol % acetic acid eluent B; acetonitrile
• Flow rate: 0.2 ml/min • Analytical column: Puresil C18, 2.1 mm i.d.×150 mm, […] (Waters) • Auto-sampler tray: 4° C. • Column temperature: 35° C. • Valve switching: 0-1.5 min. discard, 1.5-9.0 min. ion source for SMP-114, 9.0-15.0 min. discard • Injecting volume: […] MS/MS Conditions • Ionization method: electro-ion spray method, positive mode • MS/MS mode: SRM (selected reaction monitoring) • Monitor ion: SMP-114 Q1 m/z 395.1→Q3 m/z 199.0 (±25 eV) d5-SMP-114 Q1 m/z 400.2→Q3 m/z 204.0 (−25 eV) • Total scan time: 0.6 second (SMP-114 and d5-SMP-114) • Ionization voltage: 4.5 kV for SMP-114 • Sheath gas: 70 psi (nitrogen gas) • Auxiliary gas: 30 units (nitrogen gas) • Capillary tube temperature: 230° C. • Collision gas: 2.1-2.2 mT (argon) • Multiplier: 1300 V

AUC(0-t) ([2]; human, 80 mg treated group, once a day for 7 days, healthy male Caucasians): 10600 ng·h/mL
AUC(0-t) ([2]; human, 120 mg treated group, once a day for 7 days, healthy male Caucasians): 16700 ng·h/mL
accumulative property ([2]; once a day for 7 days, healthy male Caucasians): no accumulative property
SMILES: C[C@@H](c1ccc(-c2ccccc2)c(F)c1)c1cc(/N=C(/N)N2CCOCC2)on1 [SMP-114, 3-[(1S)-1-(2-fluorobiphenyl-4-yl)ethyl]-5-{[amino(morpholin-4-yl)methylene]amino}isoxazole]
dose at which SMP-114 exhibits its efficacy [1]: ≥ 5 mg/kg
side effects undesirable with respect to tolerance ([2]; 80 mg or 120 mg oral once a day for 7 days, healthy male Caucasians): observed at neither of the doses
tolerance ([2]; repeated once-a-day dose of about 120 mg or less, human): satisfactory
